This experiment deals with primary cultures of osteoblasts from fetal rat calvarias. Nature of the experiment: in vitro DNA-synthesis assay. The experiment is classed as cell-based. Here is the method:
Compounds of general formula (I) were tested in an in vitro DNA-synthesis assay. The cells used were primary cultures of osteoblasts from fetal rat calvarias. The experiments were performed in an analogous manner as published in Pfeilschifter et al., Endocrinology 126, 703 (1990).

As for Ada-Ava-W, the “Biological activity in % compared to control (100%)” value runs as follows: (0.001 μg/ml) 116%; (0.01 μg/ml) 152%; (0.1 μg/ml) 182%; (1.0 μg/ml) 183%; (10 μg/ml) 229%.
With Ada-SAW, the “Biological activity in % compared to control (100%)” value is listed as 122% (0.001 μg/ml); 148% (0.01 μg/ml); 199% (0.1 μg/ml); 162% (1.0 μg/ml); 188% (10 μg/ml).
Taken in the same sequence, the figures for Ada-Aba-W were 173%, 184%, 228%, 223% and 261%.

Source of the values: patent publication US6429288B1, “Peptides containing an arginine mimetic for the treatment of bone metabolic disorders, their production, and drugs containing these compounds” (Roche Diagnostics GmbH, priority 1997, dated 2002).
